Results published in patent US7128910B2, “Moraxella catarrahalis outer membrane protein-106 polypeptide, gene sequences and uses thereof” (priority 1996, dated 2006).

system: M. catarrhalis ATCC 49143; test: Proteolytic digestion of intact cells followed by hemagglutination test; type: cell-based, Moraxella catarrhalis; details: intact cells digested 1 hour at room temperature
Method: All proteases were obtained from Sigma Chemicals (St. Louis, Mo.). Immediately following the protease treatment, cells were washed once in PBS and resuspended in 1 ml of PBS and the hemagglutinating activity was tested. Additionally, protease-treated bacterial cells were extracted with octyl glucoside so the outer membrane proteins could be resolved to identify specific proteins that may have been digested by the proteases.

| Substance | Effect of protease treatment on hemagglutination activity |
| --- | --- |
| trypsin | partially destroyed hemagglutination activity |
| proteinase V8: Protease from Sigma Chemicals | did not affect hemagglutination activity |
| chymotrypsin | destroyed the hemagglutination activity |
